Measured values from patent US20200270309A1, “MALEIMIDE GROUP-MODIFIED ANGIOGENESIS INHIBITOR HM-1 AND USE THEREOF” (NANJING ANJI BIOLOGICAL TECHNOLOGY CO., LTD, priority 2017, published 2020).
Where two headings read alike, the source gives them in different places. Ends that are not written are not given here. Peptide text beside a SMILES is read from it. * marks the point of attachment. Hexanoyl(6-maleimido) = O=C1C=CC(=O)N1CCCCCC(=O)*; Butanoyl(4-maleimido) = O=C1C=CC(=O)N1CCCC(=O)*; Propanoyl(3-maleimido) = O=C1C=CC(=O)N1CCC(=O)*; X73 = O=C1C=CC(=O)N1c1ccc(CCCCCCCCCC(=O)*)cc1; X20 = O=C1C=CC(=O)N1CCOCCOCCOCCOCCOCCCC(=O)*; X53 = O=C1C=CC(=O)N1CCOCCOCCOCCOCCCCCCC(=O)*; Maleimidoacetyl = O=C1C=CC(=O)N1CC(=O)*; X17 = O=C1C=CC(=O)N1CCOCCOCCCCCCCC(=O)*; X35 = O=C1C=CC(=O)N1CCOCCOCCOCCOCC(=O)*; X78 = O=C1C=CC(=O)N1c1ccc(CCCC(=O)*)cc1; X16 = O=C1C=CC(=O)N1CCOCCOCCCCCCC(=O)*; X81 = O=C1C=CC(=O)N1c1ccccc1CCCC(=O)*; X77 = O=C1C=CC(=O)N1CCCCCCCCCCC(=O)*; X80 = O=C1C=CC(=O)N1c1ccccc1CCC(=O)*; X67 = O=C1C=CC(=O)N1CCCCCCCCCC(=O)*; X30 = O=C1C=CC(=O)N1CCOCCOCC(=O)*

Assay: Half-lives and pharmacokinetic parameters of polypeptides vs HM-1
Details: in vivo
[1] = read-out: T1/2β (half-life) (converted)

Row | Compound | AUC(0-inf) (read-out: AUC0-∞) | clearance (read-out: CL (converted)) | MRT inf (read-out: MRT0-∞) | half-life [1] | AUC(0-inf) | MRT inf | clearance | half-life (T1/2β (half-life)) | half-life (read-out: half-life (converted)) | half-life
1 | C[C@H](NC(=O)[C@H](CCCNC(=N)N)NC(=O)[C@H](CC(=O)O)NC(=O)CNC(=O)[C@H](CCCNC(=N)N)NC(=O)CCN1C(=O)C=CC1=O)C(=O)NCC(=O)NCC(=O)NCC(=O)NCC(=O)N[C@@H](CCCNC(=N)N)C(=O)NCC(=O)N[C@@H](CC(=O)O)C(=O)O [P7] ({Propanoyl(3-maleimido)}-RGDRAGGGGRGD-OH; C-terminus assumed) | 32000 ± 7820 ng·h/mL | 0.522 mL/min/kg | 57.2 ± 13.9 h | 39.63 ± 0.28 h | – | – | – | – | – | –
2 | C[C@H](NC(=O)CNC(=O)[C@H](CCCNC(=N)N)NC(=O)CCCCCCOCCOCCOCCOCCN1C(=O)C=CC1=O)C(=O)N[C@@H](CC(=O)O)C(=O)N[C@@H](CCCNC(=N)N)C(=O)N[C@@H](C)C(=O)NCC(=O)NCC(=O)NCC(=O)NCC(=O)N[C@@H](CCCNC(=N)N)C(=O)NCC(=O)N[C@@H](CC(=O)O)C(=O)O [X75] (X53-RGADRAGGGGRGD-OH) | – | – | – | – | 26700 ± 6960 ng·h/mL | 47.8 ± 13.9 h | 0.623 mL/min/kg | 33.15 ± 0.25 h | – | –
3 | C[C@H](NC(=O)CNC(=O)[C@H](CCCNC(=N)N)NC(=O)COCCOCCN1C(=O)C=CC1=O)C(=O)N[C@@H](CC(=O)O)C(=O)N[C@@H](CCCNC(=N)N)C(=O)N[C@@H](C)C(=O)NCC(=O)NCC(=O)NCC(=O)NCC(=O)N[C@@H](CCCNC(=N)N)C(=O)NCC(=O)N[C@@H](CC(=O)O)C(=O)O [X56] (X30-RGADRAGGGGRGD-OH) | – | – | – | – | 32900 ± 8070 ng·h/mL | 59 ± 10.1 h | 0.507 mL/min/kg | 40.86 ± 0.29 h | – | –
4 | C[C@H](NC(=O)CNC(=O)[C@H](CCCNC(=N)N)NC(=O)CCCCCCOCCOCCN1C(=O)C=CC1=O)C(=O)N[C@@H](CC(=O)O)C(=O)N[C@@H](CCCNC(=N)N)C(=O)N[C@@H](C)C(=O)NCC(=O)NCC(=O)NCC(=O)NCC(=O)N[C@@H](CCCNC(=N)N)C(=O)NCC(=O)N[C@@H](CC(=O)O)C(=O)O [X61] (X16-RGADRAGGGGRGD-OH) | – | – | – | – | 25600 ± 7550 ng·h/mL | 45.7 ± 13.6 h | 0.652 mL/min/kg | 31.69 ± 0.28 h | – | –
5 | H-RGADRAGGGGRGD [HM-1, Arg-Gly-Ala-Asp-Arg-Ala-Gly-Gly-Gly-Gly-Arg-Gly-Asp] | 32800 ± 8410 ng·h/mL | 24.8 mL/min/kg | 0.068 ± 0.012 h | 0.35 ± 0.14 h | – | – | – | – | 0.34 h | –
6 | C[C@H](NC(=O)CNC(=O)[C@H](CCCNC(=N)N)NC(=O)CCc1ccccc1N1C(=O)C=CC1=O)C(=O)N[C@@H](CC(=O)O)C(=O)N[C@@H](CCCNC(=N)N)C(=O)N[C@@H](C)C(=O)NCC(=O)NCC(=O)NCC(=O)NCC(=O)N[C@@H](CCCNC(=N)N)C(=O)NCC(=O)N[C@@H](CC(=O)O)C(=O)O [X14] (X80-RGADRAGGGGRGD-OH) | – | – | – | – | 29100 ± 7660 ng·h/mL | 52 ± 13.5 h | 0.573 mL/min/kg | 36.04 ± 0.32 h | – | –
7 | C[C@H](NC(=O)CNC(=O)[C@H](CCCNC(=N)N)NC(=O)CCCCCCCCCCN1C(=O)C=CC1=O)C(=O)N[C@@H](CC(=O)O)C(=O)N[C@@H](CCCNC(=N)N)C(=O)N[C@@H](C)C(=O)NCC(=O)NCC(=O)NCC(=O)NCC(=O)N[C@@H](CCCNC(=N)N)C(=O)NCC(=O)N[C@@H](CC(=O)O)C(=O)O [X10] (X77-RGADRAGGGGRGD-OH) | – | – | – | – | 31200 ± 7210 ng·h/mL | 55.8 ± 12.9 h | 0.535 mL/min/kg | 38.64 ± 0.25 h | – | –
8 | C[C@H](NC(=O)CNC(=O)[C@H](CCCNC(=N)N)NC(=O)CCCN1C(=O)C=CC1=O)C(=O)N[C@@H](CC(=O)O)C(=O)N[C@@H](CCCNC(=N)N)C(=O)N[C@@H](C)C(=O)NCC(=O)NCC(=O)NCC(=O)NCC(=O)N[C@@H](CCCNC(=N)N)C(=O)NCC(=O)N[C@@H](CC(=O)O)C(=O)O [X3] ({Butanoyl(4-maleimido)}-RGADRAGGGGRGD-OH) | 33800 ± 7660 ng·h/mL | 0.493 mL/min/kg | 60.5 ± 13.2 h | 41.92 ± 0.32 h | – | – | – | – | – | –
9 | C[C@H](NC(=O)CNC(=O)[C@H](CCCNC(=N)N)NC(=O)CCCc1ccccc1N1C(=O)C=CC1=O)C(=O)N[C@@H](CC(=O)O)C(=O)N[C@@H](CCCNC(=N)N)C(=O)N[C@@H](C)C(=O)NCC(=O)NCC(=O)NCC(=O)NCC(=O)N[C@@H](CCCNC(=N)N)C(=O)NCC(=O)N[C@@H](CC(=O)O)C(=O)O [X15] (X81-RGADRAGGGGRGD-OH) | – | – | – | – | 34400 ± 8520 ng·h/mL | 61.5 ± 10 h | 0.485 mL/min/kg | 42.65 ± 0.25 h | – | –
10 | C[C@H](NC(=O)[C@H](CCCNC(=N)N)NC(=O)[C@H](CC(=O)O)NC(=O)[C@H](CCC(=O)O)NC(=O)CNC(=O)[C@H](CCCNC(=N)N)NC(=O)CCN1C(=O)C=CC1=O)C(=O)NCC(=O)NCC(=O)NCC(=O)NCC(=O)N[C@@H](CCCNC(=N)N)C(=O)NCC(=O)N[C@@H](CC(=O)O)C(=O)O [P5] ({Propanoyl(3-maleimido)}-RGEDRAGGGGRGD-OH; C-terminus assumed) | – | – | – | – | 29200 ± 7880 ng·h/mL | 52.4 ± 12.2 h | 0.57 mL/min/kg | – | – | 36.28 ± 0.25 h
11 | C[C@H](NC(=O)CNC(=O)[C@H](CCCNC(=N)N)NC(=O)CCCCCCCOCCOCCN1C(=O)C=CC1=O)C(=O)N[C@@H](CC(=O)O)C(=O)N[C@@H](CCCNC(=N)N)C(=O)N[C@@H](C)C(=O)NCC(=O)NCC(=O)NCC(=O)NCC(=O)N[C@@H](CCCNC(=N)N)C(=O)NCC(=O)N[C@@H](CC(=O)O)C(=O)O [X62] (X17-RGADRAGGGGRGD-OH) | – | – | – | – | 26700 ± 8160 ng·h/mL | 47.8 ± 12.3 h | 0.625 mL/min/kg | 33.09 ± 0.28 h | – | –
12 | C[C@H](NC(=O)CNC(=O)[C@H](CCCNC(=N)N)NC(=O)CCCOCCOCCOCCOCCOCCN1C(=O)C=CC1=O)C(=O)N[C@@H](CC(=O)O)C(=O)N[C@@H](CCCNC(=N)N)C(=O)N[C@@H](C)C(=O)NCC(=O)NCC(=O)NCC(=O)NCC(=O)N[C@@H](CCCNC(=N)N)C(=O)NCC(=O)N[C@@H](CC(=O)O)C(=O)O [X79] (X20-RGADRAGGGGRGD-OH) | – | – | – | – | 30500 ± 8350 ng·h/mL | 54.6 ± 10.2 h | 0.547 mL/min/kg | 37.87 ± 0.32 h | – | –
13 | C[C@H](NC(=O)CNC(=O)[C@H](CCCNC(=N)N)NC(=O)CCCCCN1C(=O)C=CC1=O)C(=O)N[C@@H](CC(=O)O)C(=O)N[C@@H](CCCNC(=N)N)C(=O)N[C@@H](C)C(=O)NCC(=O)NCC(=O)NCC(=O)NCC(=O)N[C@@H](CCCNC(=N)N)C(=O)NCC(=O)N[C@@H](CC(=O)O)C(=O)O [X5] ({Hexanoyl(6-maleimido)}-RGADRAGGGGRGD-OH) | 27900 ± 7030 ng·h/mL | 0.598 mL/min/kg | 49.9 ± 13.2 h | 34.59 ± 0.29 h | – | – | – | – | – | –
14 | C[C@H](NC(=O)CNC(=O)[C@H](CCCNC(=N)N)NC(=O)CCCCCCCCCN1C(=O)C=CC1=O)C(=O)N[C@@H](CC(=O)O)C(=O)N[C@@H](CCCNC(=N)N)C(=O)N[C@@H](C)C(=O)NCC(=O)NCC(=O)NCC(=O)NCC(=O)N[C@@H](CCCNC(=N)N)C(=O)NCC(=O)N[C@@H](CC(=O)O)C(=O)O [X9] (X67-RGADRAGGGGRGD-OH) | – | – | – | – | 31200 ± 7350 ng·h/mL | 56 ± 13.3 h | 0.537 mL/min/kg | 38.78 ± 0.31 h | – | –
15 | C[C@H](NC(=O)CNC(=O)[C@H](CCCNC(=N)N)NC(=O)CCCCCN1C(=O)C=CC1=O)C(=O)N[C@@H](CC(=O)O)C(=O)N[C@@H](CCCNC(=N)N)C(=O)N[C@@H](C)C(=O)NCC(=O)N[C@@H](CO)C(=O)N[C@@H](CO)C(=O)N[C@@H](CO)C(=O)N[C@@H](CO)C(=O)N[C@@H](CCCNC(=N)N)C(=O)NCC(=O)N[C@@H](CC(=O)O)C(=O)O [P14] ({Hexanoyl(6-maleimido)}-RGADRAGSSSSRGD-OH; C-terminus assumed) | 32200 ± 7560 ng·h/mL | 0.518 mL/min/kg | 57.5 ± 9.63 h | 39.85 ± 0.31 h | – | – | – | – | – | –
16 | C[C@H](NC(=O)CNC(=O)[C@H](CCCNC(=N)N)NC(=O)CCCCCCCCCc1ccc(N2C(=O)C=CC2=O)cc1)C(=O)N[C@@H](CC(=O)O)C(=O)N[C@@H](CCCNC(=N)N)C(=O)N[C@@H](C)C(=O)NCC(=O)NCC(=O)NCC(=O)NCC(=O)N[C@@H](CCCNC(=N)N)C(=O)NCC(=O)N[C@@H](CC(=O)O)C(=O)O [X45] (X73-RGADRAGGGGRGD-OH) | – | – | – | – | 24300 ± 8330 ng·h/mL | 43.5 ± 12 h | 0.685 mL/min/kg | 30.15 ± 0.26 h | – | –
17 | C[C@H](NC(=O)CNC(=O)[C@H](CCCNC(=N)N)NC(=O)COCCOCCOCCOCCN1C(=O)C=CC1=O)C(=O)N[C@@H](CC(=O)O)C(=O)N[C@@H](CCCNC(=N)N)C(=O)N[C@@H](C)C(=O)NCC(=O)NCC(=O)NCC(=O)NCC(=O)N[C@@H](CCCNC(=N)N)C(=O)NCC(=O)N[C@@H](CC(=O)O)C(=O)O [X70] (X35-RGADRAGGGGRGD-OH) | – | – | – | – | 28000 ± 8160 ng·h/mL | 50.2 ± 10.5 h | 0.595 mL/min/kg | 34.76 ± 0.26 h | – | –
18 | C[C@H](NC(=O)CNC(=O)[C@H](CCCNC(=N)N)NC(=O)CN1C(=O)C=CC1=O)C(=O)N[C@@H](CC(=O)O)C(=O)N[C@@H](CCCNC(=N)N)C(=O)N[C@@H](C)C(=O)NCC(=O)NCC(=O)NCC(=O)NCC(=O)N[C@@H](CCCNC(=N)N)C(=O)NCC(=O)N[C@@H](CC(=O)O)C(=O)O [X1] (Maleimidoacetyl-RGADRAGGGGRGD-OH) | 29000 ± 6940 ng·h/mL | 0.575 mL/min/kg | 51.9 ± 10.2 h | 35.99 ± 0.29 h | – | – | – | – | – | –
19 | C[C@H](NC(=O)CNC(=O)[C@H](CCCNC(=N)N)NC(=O)CCCc1ccc(N2C(=O)C=CC2=O)cc1)C(=O)N[C@@H](CC(=O)O)C(=O)N[C@@H](CCCNC(=N)N)C(=O)N[C@@H](C)C(=O)NCC(=O)NCC(=O)NCC(=O)NCC(=O)N[C@@H](CCCNC(=N)N)C(=O)NCC(=O)N[C@@H](CC(=O)O)C(=O)O [X39] (X78-RGADRAGGGGRGD-OH) | – | – | – | – | 32800 ± 7110 ng·h/mL | 58.8 ± 13.1 h | 0.508 mL/min/kg | 40.73 ± 0.28 h | – | –
